The text below walks through data of US11370798B2 (Vertex Pharmaceuticals Incorporated, priority 2012, dated 2022).

Structures are written as SMILES.

The test has as its system HCT116 colorectal cancer cells. The test is described as follows: Cisplatin sensitization assay (96 h cell viability MTS).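 Also: Test-compound concentration that lowers the Cisplatin IC50 by a set fold.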 Format: cell-based. Conditions: compound and Cisplatin added simultaneously, Cisplatin sensitization value. The gist of the method:
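Viability read by MTS (1 h at 37° C) after 96 h co-exposure at 37° C, 5% CO2. Test compound and cisplatin were dosed simultaneously in a full concentration matrix, each 2-fold serially diluted from 10 μM final; sensitization values binned in μM.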
Take `CN1CCC(Oc2ccncc2NC(=O)c2c(N)nn3cc(F)cnc23)CC1` [I-O-12, 2-amino-6-fluoro-N-(4-((1-methylpiperidin-4-yl)oxy)pyridin-3-yl)pyrazolo[1,5-a]pyrimidine-3-carboxamide]: the “Cisplatin Sensitization Assay” value is “+++ (Cisplatin sensitization value of <0.02 μM)”.

On to `Nc1nn2cc(F)cnc2c1C(=O)Nc1cncc(F)c1N1CCN(C(=O)C2CCN(C3COC3)CC2)CC1` [I-N-211, 2-amino-6-fluoro-N-(5-fluoro-4-(4-(1-(oxetan-3-yl)piperidine-4-carbonyl)piperazin-1-yl)pyridin-3-yl)pyrazolo[1,5-a]pyrimidine-3-carboxamide], for which the “Cisplatin Sensitization Assay” value is given as “++ (Cisplatin sensitization value>0.02 μM but <0.2 μM)”.

With `Nc1nn2cc(F)cnc2c1C(=O)Nc1cncc(F)c1N1CCC(C(=O)N2CCC(N3CCCC3)CC2)CC1` [I-G-59, 2-amino-6-fluoro-N-(5-fluoro-4-(4-(4-(pyrrolidin-1-yl)piperidine-1-carbonyl)piperidin-1-yl)pyridin-3-yl)pyrazolo[1,5-a]pyrimidine-3-carboxamide], the “Cisplatin Sensitization Assay” value is on record as “+++ (Cisplatin sensitization value of <0.02 μM)”.

For `Nc1nn2cc(Cl)cnc2c1C(=O)Nc1cnccc1O[C@H]1C[C@]2(CCN2)C1` [I-O-78, N-(4-((4s,6r)-1-azaspiro[3.3]heptan-6-yloxy)pyridin-3-yl)-2-amino-6-chloropyrazolo[1,5-a]pyrimidine-3-carboxamide], the “Cisplatin Sensitization Assay” value is listed as “+ (Cisplatin sensitization value>0.2 μM but <5 μM)”.

As to `Nc1nn2cc(F)cnc2c1C(=O)Nc1cncc(F)c1N1CCC(c2nccs2)CC1` [I-N-184, 2-amino-6-fluoro-N-(5-fluoro-4-(4-(thiazol-2-yl)piperidin-1-yl)pyridin-3-yl)pyrazolo[1,5-a]pyrimidine-3-carboxamide], the “Cisplatin Sensitization Assay” value is reported as “++ (Cisplatin sensitization value>0.02 μM but <0.2 μM)”.

For `Nc1nn2cc(F)cnc2c1C(=O)Nc1cncc(F)c1N1CCN(C(=O)C23CCN(CC2)CC3)CC1` [I-N-134, 2-amino-6-fluoro-N-(5-fluoro-4-(4-(quinuclidine-4-carbonyl)piperazin-1-yl)pyridin-3-yl)pyrazolo[1,5-a]pyrimidine-3-carboxamide], the “Cisplatin Sensitization Assay” value is given as “+ (Cisplatin sensitization value>0.2 μM but <5 μM)”.

Turning to `CN1CCC[C@@H]1C(=O)N1CCN(c2c(F)cncc2NC(=O)c2c(N)nn3cc(F)cnc23)CC1` [I-N-181, (R)-2-amino-6-fluoro-N-(5-fluoro-4-(4-(1-methylpyrrolidine-2-carbonyl)piperazin-1-yl)pyridin-3-yl)pyrazolo[1,5-a]pyrimidine-3-carboxamide], the “Cisplatin Sensitization Assay” value is “+++ (Cisplatin sensitization value of <0.02 μM)”.

`Nc1nn2cc(F)cnc2c1C(=O)Nc1cnccc1N1CCS(=O)(=O)CC1` [I-N-210, 2-amino-N-(4-(1,1-dioxidothiomorpholino)pyridin-3-yl)-6-fluoropyrazolo[1,5-a]pyrimidine-3-carboxamide]: the “Cisplatin Sensitization Assay” value is recorded as “+++ (Cisplatin sensitization value of <0.02 μM)”.

Take `COc1ccc(-c2ccncc2NC(=O)c2c(N)nn3cc(F)cnc23)cn1` [I-C-27, 2-amino-6-fluoro-N-(6-methoxy-[3,4′-bipyridin]-3′-yl)pyrazolo[1,5-a]pyrimidine-3-carboxamide]: the “Cisplatin Sensitization Assay” value is listed as “++ (Cisplatin sensitization value>0.02 μM but <0.2 μM)”.

As for `Nc1nn2cc(F)cnc2c1C(=O)Nc1cnccc1N1CCN(C2COC2)C2CC21` (stereo not drawn) [I-N-31, 2-amino-6-fluoro-N-(4-(5-(oxetan-3-yl)-2,5-diazabicyclo[4.1.0]heptan-2-yl)pyridin-3-yl)pyrazolo[1,5-a]pyrimidine-3-carboxamide], the “Cisplatin Sensitization Assay” value is “+ (Cisplatin sensitization value>0.2 μM but <5 μM)”.

As to `CN1CCN2CCN(c3c(F)cncc3NC(=O)c3c(N)nn4cc(F)cnc34)CC2C1=O` (stereo not drawn) [I-N-240, 2-amino-6-fluoro-N-(5-fluoro-4-(8-methyl-9-oxohexahydro-1H-pyrazino[1,2-a]pyrazin-2(6H)-yl)pyridin-3-yl)pyrazolo[1,5-a]pyrimidine-3-carboxamide], the “Cisplatin Sensitization Assay” value is listed as “++ (Cisplatin sensitization value>0.02 μM but <0.2 μM)”.

Regarding `Nc1nn2cc(F)cnc2c1C(=O)Nc1cncc(Cl)c1N1CCN2CCN(C3COC3)CC2C1` (stereo not drawn) [I-N-38, 2-amino-N-(5-chloro-4-(8-(oxetan-3-yl)hexahydro-1H-pyrazino[1,2-a]pyrazin-2(6H)-yl)pyridin-3-yl)-6-fluoropyrazolo[1,5-a]pyrimidine-3-carboxamide], the “Cisplatin Sensitization Assay” value is recorded as “++ (Cisplatin sensitization value>0.02 μM but <0.2 μM)”.

For the compound `Cc1nc(C)n(-c2ccncc2NC(=O)c2c(N)nn3cc(F)cnc23)n1` [I-N-218, 2-amino-N-(4-(3,5-dimethyl-1H-1,2,4-triazol-1-yl)pyridin-3-yl)-6-fluoropyrazolo[1,5-a]pyrimidine-3-carboxamide], the “Cisplatin Sensitization Assay” value was “+ (Cisplatin sensitization value>0.2 μM but <5 μM)”.

Turning to `COC(=O)N1CCN(c2c(F)cncc2NC(=O)c2c(N)nn3cc(F)cnc23)CC1` [I-N-261, methyl-4-(3-(2-amino-6-fluoropyrazolo[1,5-a]pyrimidine-3-carboxamido)-5-fluoropyridin-4-yl)piperazine-1-carboxylate], the “Cisplatin Sensitization Assay” value is recorded as “+++ (Cisplatin sensitization value of <0.02 μM)”.

As to `CN1CC2CN(c3c(Cl)cncc3NC(=O)c3c(N)nn4cc(F)cnc34)CC2C1` (stereo not drawn) [I-N-286, 2-amino-N-(5-chloro-4-(5-methylhexahydropyrrolo[3,4-c]pyrrol-2(1H)-yl)pyridin-3-yl)-6-fluoropyrazolo[1,5-a]pyrimidine-3-carboxamide], the “Cisplatin Sensitization Assay” value is on record as “++ (Cisplatin sensitization value>0.02 μM but <0.2 μM)”.

Turning to `Nc1nn2cc(F)cnc2c1C(=O)Nc1cncc(F)c1N1CCC(CN2CCOCC2)CC1` [I-N-149, 2-amino-6-fluoro-N-(5-fluoro-4-(4-(morpholinomethyl)piperidin-1-yl)pyridin-3-yl)pyrazolo[1,5-a]pyrimidine-3-carboxamide], the “Cisplatin Sensitization Assay” value is listed as “+++ (Cisplatin sensitization value of <0.02 μM)”.

With `CC1(O)CCN(c2ccncc2NC(=O)c2c(N)nn3cc(Cl)cnc23)CC1` [I-N-66, 2-amino-6-chloro-N-(4-(4-hydroxy-4-methylpiperidin-1-yl)pyridin-3-yl)pyrazolo[1,5-a]pyrimidine-3-carboxamide], the “Cisplatin Sensitization Assay” value is “+++ (Cisplatin sensitization value of <0.02 μM)”.

Take `CN1CCN(C(=O)c2ccc(-c3ccncc3NC(=O)c3c(N)nn4cc(F)cnc34)cc2)CC1` [I-C-25, 2-amino-6-fluoro-N-(4-(4-(4-methylpiperazine-1-carbonyl)phenyl)pyridin-3-yl)pyrazolo[1,5-a]pyrimidine-3-carboxamide]: the “Cisplatin Sensitization Assay” value is “+++ (Cisplatin sensitization value of <0.02 μM)”.

For `Nc1nn2cc(F)cnc2c1C(=O)Nc1cnccc1N1CCN2C(=O)CC[C@H]2C1` [I-N-217, (S)-2-amino-6-fluoro-N-(4-(6-oxohexahydropyrrolo[1,2-a]pyrazin-2(1H)-yl)pyridin-3-yl)pyrazolo[1,5-a]pyrimidine-3-carboxamide], the “Cisplatin Sensitization Assay” value is listed as “++ (Cisplatin sensitization value>0.02 μM but <0.2 μM)”.

As for `C[N+]1([O-])CCN(C(=O)C2CCN(c3c(F)cncc3NC(=O)c3c(N)nn4cc(F)cnc34)CC2)CC1` [I-G-95, 4-(1-(3-(2-amino-6-fluoropyrazolo[1,5-a]pyrimidine-3-carboxamido)-5-fluoropyridin-4-yl)piperidine-4-carbonyl)-1-methylpiperazine 1-oxide], the “Cisplatin Sensitization Assay” value was “+++ (Cisplatin sensitization value of <0.02 μM)”.

In the case of `CC(=O)N1CCC2(CCN(c3ccncc3NC(=O)c3c(N)nn4cc(F)cnc34)CC2)C1` [I-N-257, N-(4-(2-acetyl-2,8-diazaspiro[4.5]decan-8-yl)pyridin-3-yl)-2-amino-6-fluoropyrazolo[1,5-a]pyrimidine-3-carboxamide], the “Cisplatin Sensitization Assay” value is on record as “+++ (Cisplatin sensitization value of <0.02 μM)”.

`CN1CCN(c2ccncc2NC(=O)c2c(N)nn3cc(F)cnc23)CC12CCOCC2` [I-N-133, 2-amino-6-fluoro-N-(4-(1-methyl-9-oxa-1,4-diazaspiro[5.5]undecan-4-yl)pyridin-3-yl)pyrazolo[1,5-a]pyrimidine-3-carboxamide]: the “Cisplatin Sensitization Assay” value is given as “++ (Cisplatin sensitization value>0.02 μM but <0.2 μM)”.

With `CN(C)Cc1ccc(Oc2ccncc2NC(=O)c2c(N)nn3cc(F)cnc23)cn1` [I-O-3, 2-amino-N-(4-((6-((dimethylamino)methyl)pyridin-3-yl)oxy)pyridin-3-yl)-6-fluoropyrazolo[1,5-a]pyrimidine-3-carboxamide], the “Cisplatin Sensitization Assay” value is “++ (Cisplatin sensitization value>0.02 μM but <0.2 μM)”.

As to `N#CCc1cnc2c(C(=O)Nc3cnccc3Oc3ccccc3)c(N)nn2c1` [I-O-25, 2-amino-6-(cyanomethyl)-N-(4-phenoxypyridin-3-yl)pyrazolo[1,5-a]pyrimidine-3-carboxamide], the “Cisplatin Sensitization Assay” value is recorded as “+++ (Cisplatin sensitization value of <0.02 μM)”.

Regarding `Nc1nn2cc(F)cnc2c1C(=O)Nc1cnccc1N1CCN2C(=O)COCC2C1` (stereo not drawn) [I-N-136, 2-amino-6-fluoro-N-(4-(4-oxohexahydropyrazino[2,1-c][1,4]oxazin-8(1H)-yl)pyridin-3-yl)pyrazolo[1,5-a]pyrimidine-3-carboxamide], the “Cisplatin Sensitization Assay” value is on record as “++ (Cisplatin sensitization value>0.02 μM but <0.2 μM)”.

Regarding `Cn1ccc2cncc(NC(=O)c3c(N)nn4cc(F)cnc34)c21` [I-N-259, 2-amino-6-fluoro-N-(1-methyl-1H-pyrrolo[3,2-c]pyridin-7-yl)pyrazolo[1,5-a]pyrimidine-3-carboxamide], the “Cisplatin Sensitization Assay” value is given as “+ (Cisplatin sensitization value>0.2 μM but <5 μM)”.

On to `CS(=O)(=O)C1CN(C(=O)C2CCN(c3c(F)cncc3NC(=O)c3c(N)nn4cc(F)cnc34)CC2)C1` [I-G-86, 2-amino-6-fluoro-N-(5-fluoro-4-(4-(3-(methylsulfonyl)azetidine-1-carbonyl)piperidin-1-yl)pyridin-3-yl)pyrazolo[1,5-a]pyrimidine-3-carboxamide], for which the “Cisplatin Sensitization Assay” value is reported as “+++ (Cisplatin sensitization value of <0.02 μM)”.
